Data: publication PMC3435281 (PLoS ONE, 2012)

Experiments:
[1] = tested on: AHR^fxneo/fxneo and AHR^fxneo/+ pups; test: In utero exposure, closure of ductus venosus (DV); assay type: in vivo, mouse; details: dams 110 mg/kg i.p. at E18.5, examined at 4 weeks
Protocol: We have previously shown that genetically altered mice that express only 10% of the AHR display a patent ductus venosus (DV) in the liver in nearly all cases. We additionally identified that in utero activation of the receptor in the hypomorphs with TCDD successfully closed the DV [5]. […] At 4 weeks of age, the pups were sacrificed, and DV status was examined by hepatic perfusion with trypan blue.
Timed mating of female AHR^fxneo/+ mice to male AHR^fxneo/fxneo mice was performed. […] When the pups were 4 weeks of age, the status of the DV was determined by hepatic perfusion with Trypan Blue as previously described. Briefly, each mouse was anesthetized and its liver was flushed with PBS through the cannulated portal vein. […] Trypan blue was injected through the portal vein until the liver visibly turned blue (in the case of a closed DV) or until the dye was seen exiting the IVC without perfusing the liver (when the DV is open).

[2] = tested on: AHR^−/− splenocytes; test: CYP1A1 and IDO mRNA in AHR^−/− splenocytes; assay type: cell-based, mouse; details: null cells, SU5416 500 nM or IFN-γ 100 ng/ml, 4 hours
Excerpt: An important role for the AHR in the immune system, and specifically T-cell differentiation, has been recognized and continues to be characterized in the literature, [7]. Some ligands of the AHR have the ability to enhance Treg differentiation from naïve T-cells (TCDD, kynurenine), while others direct differentiation towards Th17 effector cells (FICZ). […] IDO has long been known to play a role in Treg generation, and may be central to the mechanism of Dendritic Cell (DC)-directed Treg generation. We as well as others have previously shown that IDO mRNA can be induced by ligands of the AHR, and that the mechanisms of IDO-directed Treg generation may depend on the AHR [25]. […] As described in the Methods, naïve T-cells were sorted using magnetic bead separation, and placed in culture for 5 days with allogeneic pDCs separated from BALB/C mice. SU5416, TCDD, FICZ, or media alone was added at the start of culture. After 5 days, cells were collected and mRNA harvested for qPCR analysis of IDO and FoxP3. […] We used a dose of 2 ng/ml TGF-β, which in our hands has been a suboptimal dose for Treg generation (4 ng/ml has been optimal in our hands). […]
(§1) A. Spleens were harvested from mice and processed in the standard fashion. […] Same assay as A, but mRNA for CYP1B1 and IDO were measured. […] Same assay as in C, but IDO mRNA was assessed. * - p≤0.05. * - p≤0.01. […]

[3] = tested on: naïve CD4^+ T cells; test: Naïve CD4+ T cells with TGF-β, flow cytometry of FoxP3 and CD39; assay type: cell-based, mouse; details: TGF-β 2 ng/ml with SU5416 250 nM, day 3
Excerpt: An important role for the AHR in the immune system, and specifically T-cell differentiation, has been recognized and continues to be characterized in the literature, [7]. Some ligands of the AHR have the ability to enhance Treg differentiation from naïve T-cells (TCDD, kynurenine), while others direct differentiation towards Th17 effector cells (FICZ). […] IDO has long been known to play a role in Treg generation, and may be central to the mechanism of Dendritic Cell (DC)-directed Treg generation. We as well as others have previously shown that IDO mRNA can be induced by ligands of the AHR, and that the mechanisms of IDO-directed Treg generation may depend on the AHR [25]. […] As described in the Methods, naïve T-cells were sorted using magnetic bead separation, and placed in culture for 5 days with allogeneic pDCs separated from BALB/C mice. […]
as §1
Naive CD4^+ T cells were isolated using the CD4^+ CD62L Isolation Kit (Miltenyi Biotec, Auburn, CA) and an autoMACS. […] For quantitative PCR (qPCR) analysis, 2–5 × 10^5 cells were cultured in each well of a 96-well round-bottom plate coated with 0.5 µg/ml anti-CD3 and anti-CD28 overnight and then washed with PBS twice before seeding the cells. […]

[4] = biological target: AHR A375V (AHR^d type) (Mus musculus, UniProt P30561, A375V); test: DRE-luciferase in COS-1 cells transfected with mAHR-A375V
Protocol: Figure 4 Splenocytes from wild-type and AHR^d mice analyzed by qPCR for CYP1A1. […] After 4 hours they were analyzed by qPCR for CYP1A1 analysis. The curves are normalized from 0 to 100% response. […] Cos-1 cells were transfected with an AHR containing the same point mutation (valine for alanine) thought to be responsible for the low affinity of the AHR^d isoform compared to AHR^b, and compared to the wild-type AHR response. These cells also harbor a luciferase gene next to the DRE. C. Cos-1 cells were exposed to TCDD. […] The graphs represent normalized data from 0 response to 100% response. They are representative of 2 independent experiments.
These cells also harbor a luciferase gene next to the DRE. […] The data in this figure is normalized from 0 to 100% response.
After 4 hours of treatment, cells were assayed with dual luciferase® reporter assay system (Promega, Madison, WI). The expressed luciferase activity was measured by MicroLumat Plus luminometer (Berthold Technologies, Hartfordshire, UK).

| SMILES | closed DV, percent of pups ([1]; AHR^fxneo/+ pups) [%] | closed DV, percent of pups ([1]; AHR^fxneo/fxneo pups) [%] | IDO mRNA induction [2] | CD39 in the FoxP3^+ T cells [3] | FoxP3 protein expression by flow cytometry [3] | EC50 [4] [nM] |
| --- | --- | --- | --- | --- | --- | --- |
| Cc1cc(C)c(C=C2C(=O)Nc3ccccc32)[nH]1 [SU5416, 3-(3,5-dimethyl-1H-pyrrol-2-ylmethylene)-1,3-dihydro-indole-2-one] | 100 | 59 | not null cells | upregulated | significantly enhanced |  |
| Clc1cc2c(cc1Cl)Oc1cc(Cl)c(Cl)cc1O2 [TCDD, 2,3,7,8-tetrachlorodibenzo-p-dioxin] |  |  |  |  |  | 2.47 |
